Measured values: patent publication US20210323950A1, “HERBICIDALLY ACTIVE BICYCLIC BENZOYLPYRAZOLES” (Bayer Aktiengesellschaft, priority 2018, published 2021)

Assays:
Format in all cases: in vivo
Setaria viridis (SETVI) = experiment: Post-emergence herbicidal action against SETVI; conditions: 20 g/ha, post-emergence at one-leaf stage, rated visually after about 3 weeks vs untreated controls
How it was run: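 Monocot and dicot weeds grown in sandy loam in greenhouse, sprayed post-emergence at one-leaf stage (2–3 weeks after sowing) with WP or EC formulations in water plus 0.5% additive at […] (converted). Visual rating after about 3 weeks versus untreated controls; 100% = plants dead, 0% = like control.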

[1] = test system: Abutilon theophrasti (ABUTH); experiment: Post-emergence herbicidal action against ABUTH; conditions: 20 g/ha, post-emergence at one-leaf stage, rated visually after about 3 weeks vs untreated controls
Protocol: ABUTH: Abutilon theophrasti 2. Post-Emergence Herbicidal Action and Crop Plant Compatibility Seeds of monocotyledonous and dicotyledonous weeds and crop plants are placed in sandy loam in plastic or organic planting pots, covered with soil and cultivated in a greenhouse under controlled growth conditions. 2 to 3 weeks after sowing, the test plants are treated at the one-leaf stage. The compounds of the invention, formulated in the form of wettable powders (WP) or as emulsion concentrates (EC), are then sprayed onto the green parts of the plants as aqueous suspension or emulsion with addition of 0.5% additive at a water application rate of […] (converted). After the test plants had been kept in the greenhouse under optimum growth conditions for about 3 weeks, the activity of the preparations is rated visually in comparison to untreated controls. The tables below show the herbicidal activity of numerous compounds according to the invention against important harmful plants. For example, 100% activity=the plants have died, 0% activity=like control plants.

[2] = test system: Echinochloa crus-galli (ECHCG); experiment: Pre-emergence herbicidal action against ECHCG; conditions: scored visually after about 3 weeks vs untreated controls
Stellaria media (STEME) = experiment: Post-emergence herbicidal action against STEME; conditions: 20 g/ha, post-emergence at one-leaf stage, rated visually after about 3 weeks vs untreated controls
[3] = test system: Abutilon theophrasti (ABUTH); experiment: Pre-emergence herbicidal action against ABUTH; conditions: scored visually after about 3 weeks vs untreated controls
How it was run: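 Sown pots had WP or EC formulations sprayed onto the covering soil as aqueous suspension/emulsion with 0.5% additive, then were kept in a greenhouse. After about 3 weeks, damage was scored visually as % versus untreated controls (100% = plants dead, 0% = like controls).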

[4] = test system: Amaranthus retroflexus (AMARE); experiment: Pre-emergence herbicidal action against AMARE; conditions: scored visually after about 3 weeks vs untreated controls
How it was run: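 Formulated compounds (WP or EC) sprayed onto soil covering sown seeds, with 0.5% additive at […] water (converted). Greenhouse-grown about 3 weeks, then damage scored visually as percent versus untreated controls (100% = dead, 0% = like control).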

Viola tricolor (VIOTR) = experiment: Pre-emergence herbicidal action against VIOTR; conditions: scored visually after about 3 weeks vs untreated controls
How it was run: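 Seeds were sown in pots and covered with soil. After ~3 weeks in the greenhouse, effect was scored visually versus untreated controls (100% = plants dead, 0% = like control).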

Structure (SMILES)	Post-emergence action against SETVI (Setaria viridis (SETVI)) [%]	Post-emergence action against ABUTH [1] [%]	Pre-emergence action against ECHCG ([2]; 80 g/ha) [%]	Post-emergence action against STEME (Stellaria media (STEME)) [%]	Pre-emergence action against ABUTH ([3]; 80 g/ha) [%]	Pre-emergence action against AMARE ([4]; 80 g/ha) [%]	Pre-emergence action against VIOTR (Viola tricolor (VIOTR); 80 g/ha) [%]	Pre-emergence action against ECHCG ([2]; 320 g/ha) [%]	Pre-emergence action against ABUTH ([3]; 320 g/ha) [%]	Pre-emergence action against AMARE ([4]; 320 g/ha) [%]	Pre-emergence action against VIOTR (Viola tricolor (VIOTR); 320 g/ha) [%]
Cc1nn(C)c(O)c1C(=O)c1ccc(C(F)(F)F)c2c1OCC[S+]2[O-] (stereo not shown) [Example 1-40]	80	80	80	100	100	100	–	–	–	–	–
Cn1ncc(C(=O)c2ccc(C(F)(F)F)c3c2OCC[S+]3[O-])c1O (stereo not shown) [Example 1-30]	90	80	100	–	100	100	100	–	–	–	–
Cn1ncc(C(=O)c2ccc(C(F)(F)F)c3c2OCS3)c1O [Example 1-13]	100	90	–	100	–	–	–	100	100	100	100
CCn1ncc(C(=O)c2ccc(C(F)(F)F)c3c2OCC[S+]3[O-])c1O (stereo not shown) [Example 1-35]	100	90	100	90	100	100	100	–	–	–	–
Cn1ncc(C(=O)c2ccc(C(F)(F)F)c3c2OC[S+]3[O-])c1O (stereo not shown) [Example 1-28]	90	90	–	90	–	–	–	100	100	–	100
Cn1ncc(C(=O)c2ccc(C(F)(F)F)c3c2OCCS3(=O)=O)c1O [Example 1-45]	–	–	100	100	100	100	100	–	–	–	–
Cn1ncc(C(=O)c2ccc(C(F)(F)F)c3c2OCCS3)c1O [Example 1-15]	80	–	80	90	–	100	100	–	–	–	–
Cn1nc(C2CC2)c(C(=O)c2ccc(C(F)(F)F)c3c2OCC[S+]3[O-])c1O (stereo not shown) [Example 1-116]	90	90	80	100	80	100	100	–	–	–	–
Cc1nn(C)c(O)c1C(=O)c1ccc(C(F)(F)F)c2c1OCCS2(=O)=O [Example 1-55]	–	90	100	90	100	100	90	–	–	–	–
CCn1ncc(C(=O)c2ccc(C(F)(F)F)c3c2OCCS3(=O)=O)c1O [Example 1-50]	80	90	100	80	100	100	–	–	–	–	–
Cn1ncc(C(=O)c2ccc(C(F)(F)C(F)(F)F)c3c2OCS3)c1O [Example 1-128]	90	–	90	80	90	100	100	–	–	–	–
